Tested on: 966289-007-R4-J1-PDC complex spheroid viability
Assay: Anticancer human tumor 966289-007-R4-J1-PDC patient-derived pancreatic adenocarcinoma cell line growth inhibition [RAS]
Conditions: for IC50: curve of first compound; for viability, T/C: stronger effect = lower value; active means viability on the fitted dose curve at most 10% of control; inactive means the rest
Procedure, shortened: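 Multi-cell-type spheroids: tumor cells plus HUVEC endothelial cells and mesenchymal stem cells. RAS-pathway inhibitors were combined with targeted agents, each dosed in half-log steps down from clinical Cmax, or from 10 microM when Cmax was unknown.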

[1] = second compound 0.000949 µM, first compound 0.0316 µM
[2] = second compound 0.000949 µM, first compound 0.1 µM
[3] = second compound 0.000949 µM, first compound 0.316 µM
[4] = second compound 0.000949 µM, first compound 1 µM
[5] = second compound 0.000949 µM, first compound 3.16 µM
[6] = second compound 0.000949 µM, first compound 10 µM
[7] = second compound 0.003 µM, first compound 0.0316 µM
[8] = second compound 0.003 µM, first compound 0.1 µM
[9] = second compound 0.003 µM, first compound 0.316 µM
[10] = second compound 0.003 µM, first compound 1 µM
[11] = second compound 0.003 µM, first compound 3.16 µM
[12] = second compound 0.003 µM, first compound 10 µM
[13] = second compound 0.00949 µM, first compound 0.0316 µM
[14] = second compound 0.00949 µM, first compound 0.1 µM
[15] = second compound 0.00949 µM, first compound 0.316 µM
[16] = second compound 0.00949 µM, first compound 1 µM
[17] = second compound 0.00949 µM, first compound 3.16 µM
[18] = second compound 0.00949 µM, first compound 10 µM
[19] = second compound 0.03 µM, first compound 0.0316 µM
[20] = second compound 0.03 µM, first compound 0.1 µM
[21] = second compound 0.03 µM, first compound 0.316 µM
[22] = second compound 0.03 µM, first compound 1 µM
[23] = second compound 0.03 µM, first compound 3.16 µM
[24] = second compound 0.03 µM, first compound 10 µM
[25] = second compound 0.0949 µM, first compound 0.0316 µM
[26] = second compound 0.0949 µM, first compound 0.1 µM
[27] = second compound 0.0949 µM, first compound 0.316 µM
[28] = second compound 0.0949 µM, first compound 1 µM
[29] = second compound 0.0949 µM, first compound 3.16 µM
[30] = second compound 0.0949 µM, first compound 10 µM
[31] = second compound 0.3 µM, first compound 0.0316 µM
[32] = second compound 0.3 µM, first compound 0.1 µM
[33] = second compound 0.3 µM, first compound 0.316 µM
[34] = second compound 0.3 µM, first compound 1 µM
[35] = second compound 0.3 µM, first compound 3.16 µM
[36] = second compound 0.3 µM, first compound 10 µM
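Further: spheroids exposed to agents for one week before readout.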
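Wherever viability, T/C is given: percent viability relative to DMSO vehicle control wells as 100%.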

C[C@@H](NC(=O)c1ncnc(N)c1Cl)c1ncc(C(=O)Nc2cc(C(F)(F)F)c(Cl)cn2)s1 + CCn1c(-c2cc(N3CCN(C)CC3)cnc2C(C)OC)c2c3cc(ccc31)-c1csc(n1)CC(NC(=O)C1CC1C)C(=O)N1CCCC(N1)C(=O)OCC(C)(C)C2
inactive: viability, T/C [1] 125% | viability, T/C [2] 120% | viability, T/C [3] 91.1% | viability, T/C [4] 73% | viability, T/C [5] 73.8% | viability, T/C [6] 103% | viability, T/C [7] 94.6% | viability, T/C [8] 113% | viability, T/C [9] 102% | viability, T/C [10] 85.1% | viability, T/C [11] 97% | viability, T/C [12] 84.2% | viability, T/C [13] 97.3% | viability, T/C [14] 116% | viability, T/C [15] 95.3% | viability, T/C [16] 69% | viability, T/C [17] 103% | viability, T/C [18] 110% | viability, T/C [19] 79.2% | viability, T/C [20] 77.2% | viability, T/C [21] 118% | viability, T/C [22] 123% | viability, T/C [23] 117% | viability, T/C [24] 82% | viability, T/C [25] 76.6% | viability, T/C [26] 88.3% | viability, T/C [27] 119% | viability, T/C [28] 105% | viability, T/C [29] 111% | viability, T/C [30] 150% | viability, T/C [31] 60.5% | viability, T/C [32] 101% | viability, T/C [33] 130% | viability, T/C [34] 141% | viability, T/C [35] 116% | viability, T/C [36] 107%
> 10 µM: IC50 (second compound 0.000949 µM) | IC50 (second compound 0.003 µM) | IC50 (second compound 0.00949 µM) | IC50 (second compound 0.03 µM) | IC50 (second compound 0.0949 µM) | IC50 (second compound 0.3 µM)

CC(=O)OC12COC1CC(O)C1(C)C(=O)C(O)C3=C(C)C(OC(=O)C(O)C(NC(=O)OC(C)(C)C)c4ccccc4)CC(O)(C(OC(=O)c4ccccc4)C21)C3(C)C (centres undefined) + CCn1c(-c2cccnc2C(C)OC)c2c3cc(ccc31)N1CCOC(CC(NC(=O)C(C(C)C)N(C)C(=O)C3(F)CCN(C(=O)C#CC(C)(C)N(C)C)CC3)C(=O)N3CCCC(N3)C(=O)OCC(C)(C)C2)C1
< 0.0316 µM: IC50 (second compound 0.000949 µM) | IC50 (second compound 0.003 µM) | IC50 (second compound 0.00949 µM) | IC50 (second compound 0.03 µM) | IC50 (second compound 0.0949 µM) | IC50 (second compound 0.3 µM)
active: viability, T/C [1] 5.96% | viability, T/C [2] 11.7% | viability, T/C [3] 9.08% | viability, T/C [7] 5.16% | viability, T/C [8] 12.8% | viability, T/C [13] 4.31% | viability, T/C [14] 11.3% | viability, T/C [19] 2.88% | viability, T/C [20] 3.54% | viability, T/C [21] 8.87% | viability, T/C [25] 2.26% | viability, T/C [26] 4.26% | viability, T/C [27] 3.62% | viability, T/C [28] 4.99% | viability, T/C [31] 1.97% | viability, T/C [32] 3.21% | viability, T/C [33] 4.05% | viability, T/C [34] 4.51% | viability, T/C [35] 7.84% | viability, T/C [36] 9.46%
inactive: viability, T/C [4] 14.2% | viability, T/C [5] 38% | viability, T/C [6] 61.4% | viability, T/C [9] 11% | viability, T/C [10] 16.3% | viability, T/C [11] 32.3% | viability, T/C [12] 52% | viability, T/C [15] 10.9% | viability, T/C [16] 16.3% | viability, T/C [17] 25.2% | viability, T/C [18] 59.7% | viability, T/C [22] 10.5% | viability, T/C [23] 20.4% | viability, T/C [24] 49.5% | viability, T/C [29] 16.5% | viability, T/C [30] 26.8%
